This experiment has as its system LPS-induced lung inflammation. The experiment in a line: In vivo LPS-induced lung inflammation, BAL analysis. The arrangement: species or system mice. As to conditions: for Hb / MPO / LDH / Total Protein: BAL fluid; for Inhibition of neutrophil migration: relative to PBS/LPS treatment. The method, then:
This example was performed essentially according to methods described by Cox, G, Crossley, J., and Xing, Z.; Macrophage engulfment of apoptotic neutrophils contributes to the resolution of acute pulmonary inflammation in vivo; Am. J. Respir. Cell Mol. Biol. 12:232-237, 1995; Hirano S., Quantitative time-course profiles of bronchoalveolar lavage cells following intratracheal instillation of lipopolysaccharide in mice, Ind. Health 35:353-358, 1997; and Ulich T R, Watson L R, Yin S M, Guo K Z, Wang P, Thang H, and del Castillo, J. Am. J. Pathol. 138:1485-1496, 1991.
Thus, six to seven week old CD1 female mice weighing 15-20 grams were obtained from Charles River laboratories and housed in groups of 5 mice per cage. The animals received standard rodent diet and filtered water ad libitum. The animals were housed under NIH prescribed guidelines at standard temperature (64° to 79° F.) and relative humidity of 30 to 70%.
Five treatment groups of mice, with 5 animals in each group, were treated either with PBS followed by PBS, with PBS followed by LPS, with (myristoylated) MANS peptide followed by LPS, with acetylated peptide of SEQ ID NO: 1, followed by LPS, or with acetylated peptide of SEQ ID NO: 106, followed by LPS.
Intranasal peptide instillation pre-treatment: A peptide of the invention to be evaluated in vivo for its ability to inhibit or reduce LPS-induced lung inflammation was dissolved in PBS at a concentration of 1 mM. Animals, anesthetized with 0.8% isofluorane by inhalation, were pretreated with 2×10 μL intranasal bolus of the peptide solution into one nostril 30 minutes prior to subsequent instillation with LPS.
Intranasal LPS instillation: Lipopolysaccharide (LPS) Endotoxin (Escherichia coli Serotype 011:B4 derived endotoxin; Sigma, St Louis, MO; see Sigma product information sheet L4130 titled Lipopolysaccharides from Escherichia coli 011:B4) was dissolved into phosphate buffered saline (PBS) at 2,500 μg/mL. To expose animals to endotoxin, a 10 μL intranasal bolus of 2,500 μg/ml endotoxin solution was administered to animals which had been anesthetized with 0.8% isofluorane by inhalation. The 10 μL bolus was applied into one nostril. Animals were monitored for labored breathing, lethargy, and decreased water/food intake following the endotoxin instillations.
Bronchoalveolar Lavage (BAL): Six hours after the last instillation, the animals were anesthetized (90 mg/kg Nembutal) and sacrificed by exsanguination. The lung was serially lavaged 2 times with 1.0 mL aliquots of PBS. The collected BAL fluid was centrifuged to remove the cells for subsequent counting and differential analysis. Recovered lavage fluid was used for analysis of total protein, myeloperoxidase (MPO), LDH, and hemoglobin.
Analysis: Aliquots of the BAL fluid were used immediately to assay for the levels of LDH, total protein, or hemoglobin using the COBAS Fara analyzer (COBAS FARA II automated analyzer; Roche Diagnostic Systems Inc., Montclair, NJ). An aliquot of BAL fluid was frozen at −80° C. for subsequent quantitation of myeloperoxidase (MPO) with a mouse-specific ELISA assay (Cell Sciences, Inc., Canton, Mass). BAL data were analyzed by standard techniques to examine differences between the control and treatment groups.

Where a SMILES comes first, the peptide text is derived from it. Where no end group is shown, it is not given here. The star is where a group is joined. Myristoyl = CCCCCCCCCCCCCC(=O)*

Regarding `CCCCCCCCCCCCCC(=O)NCC(=O)N[C@@H](C)C(=O)N[C@@H](CCC(N)=O)C(=O)N[C@@H](Cc1ccccc1)C(=O)N[C@@H](CO)C(=O)N[C@@H](CCCCN)C(=O)N[C@H](C(=O)N[C@@H](C)C(=O)N[C@@H](C)C(=O)N[C@@H](CCCCN)C(=O)NCC(=O)N[C@@H](CCC(=O)O)C(=O)N[C@@H](C)C(=O)N[C@@H](C)C(=O)N[C@@H](C)C(=O)N[C@@H](CCC(=O)O)C(=O)N[C@@H](CCCNC(=N)N)C(=O)N1CCC[C@H]1C(=O)NCC(=O)N[C@@H](CCC(=O)O)C(=O)N[C@@H](C)C(=O)N[C@@H](C)C(=O)N[C@H](C(=O)N[C@@H](C)C(=O)O)C(C)C)[C@@H](C)O` [MANS] (Myristoyl-GAQFSKTAAKGEAAAERPGEAAVA-OH; C-terminus assumed), the “Inhibition of neutrophil migration” value is given as 41.4%. For the same compound, the Total cells counted (BAL 6 h after intranasal LPS, 2×10 μL 1 mM peptide intranasal 30 min before LPS, PBS/LPS 264,200, PBS/PBS 157,020) is on record as 208,457. This compound gave a Hb (Table 4 experiment, PBS/LPS 0.19, PBS/PBS 0.00) of 0.05 g/dL. For the setting “Table 4 experiment, PBS/LPS 28.98, PBS/PBS 3.28”, this compound returned an MPO of 9.49 ng/mL. In addition, for the setting “Table 4 experiment, PBS/LPS 60.40, PBS/PBS 68.20”, the LDH came out at 68.57 units/L. Further, the “Total Protein” value (Table 4 experiment, PBS/LPS 272.40, PBS/PBS 125.60) amounted to 175.00 µg/mL. Further, where the note is “Table 4 experiment, PBS/LPS 41.7, PBS/PBS 18.7”, the “% Neutrophils of total cells” value is on record as 30.9%. Besides, the Total neutrophils counted (Table 4 experiment, PBS/LPS 110,061, PBS/PBS 29317) is recorded as 64,481.
With Ac-GAQFSKTAAK [Ac-GAQFSKTAAK], the “Inhibition of neutrophil migration” value came out at 88.5%. Under “Table 6 experiment, PBS/LPS 0.00, PBS/PBS 0.00”, the Hb is on record as 0.00 g/dL. Where the note is “Table 6 experiment, PBS/LPS 7.19, PBS/PBS 4.88”, the MPO was determined as 1.50 ng/mL. The compound further yielded an LDH (Table 6 experiment, PBS/LPS 78.20, PBS/PBS 61.80) of 106.86 units/L. For the same compound, the “Total Protein” value (Table 6 experiment, PBS/LPS 116.4, PBS/PBS 113.8) came to 131.0 µg/mL. In addition, the “% Neutrophils of total counts” value (Table 6 experiment, PBS/LPS 24.4, PBS/PBS 21.3) was determined as 3.0%. Moreover, for the setting “Table 6 experiment, PBS/LPS 80,077, PBS/PBS 66,521”, the “Total Neutrophil counts” value is on record as 9,170. Also, the “Total Cell Counts” value (Table 6 experiment, PBS/LPS 327,680, PBS/PBS 312,620) is 305,688.
Regarding Ac-GAQFSKTAAKGEAAAERPGEAAVA, the “Inhibition of neutrophil migration” value stood at 35.9%. For the same compound, the Hb (Table 5 experiment, PBS/LPS 0.01, PBS/PBS 0.00) turned out to be 0.01 g/dL. In addition, the MPO (Table 5 experiment, PBS/LPS 37.90, PBS/PBS 5.45) was determined as 30.79 ng/mL. For the same compound, where the note is “Table 5 experiment, PBS/LPS 89.9, PBS/PBS 84.0”, the LDH was 74.5 units/L. Moreover, where the note is “Table 5 experiment, PBS/LPS 153.4, PBS/PBS 230.6”, the “Total Protein” value is 182.75 µg/mL. Moreover, the “% Neutrophils of total counts” value (Table 5 experiment, PBS/LPS 65.5, PBS/PBS 22.1) turned out to be 41.47%. Further, the “Total Neutrophil counts” value (Table 5 experiment, PBS/LPS 164,578, PBS/PBS 19,770) is 105,499. In addition, the “Total Cell Counts” value (Table 5 experiment, PBS/LPS 251,360, PBS/PBS 89,440) is on record as 254,400.
